Patent US20070178537A1, “Assays for detection of bioactive compounds that interact with heat shock protein 90” (Sloan-Kettering Institute for Cancer Research, priority 2003, published 2007)
Values joined by “and” are separate entries in the source; they are usually repeats but may differ in a detail not shown here. Identical values can stand only once. Like-named read-outs stand apart in the source and are kept apart here. One block for each compound: values may come before it.

Experiments:
[1] = test system: Her2 in SKBr3 cells; assay: Her2-blot (whole-cell immunoassay of Her2 degradation); assay type: cell-based, human
Method: The human cancer cell lines SKBr3 and A431 were obtained from the American Type Culture Collection (Manassas, Va.) and maintained in 1:1 mixture of DME:F12 supplemented with 2 mM glutamine, 50 units/mL penicillin, 50 units/mL streptomycin and 5% heat inactivated fetal bovine serum (FBS) (Gemini Bioproducts) and incubated at 37° C. in 5% CO2. Stock culture was grown in T-175 flasks containing 30 mL of DME (HG, F-12, non-essential amino acids, and penicillin and streptomycin), with glutamine, and 10% FBS. Cells were dissociated with 0.05% trypsin and 0.02% EDTA in phosphate buffer saline (PBS) without calcium and magnesium. Experimental cultures of SKBr3 were plated in black, clear-bottom microtiter plates (Corning # 3603) (3,000 cells per well) in growth medium ([…]), and allowed to attach for at least 48 h at 37° C. and 5% CO2. Some wells were left without cells to serve as the blank. Growth medium (100 μL) with drug or vehicle (DMSO) was carefully added to the wells and the microtiter plates were placed at 37° C. and 5% CO2. […] Following incubation (6 h or 24 h), wells were washed twice with ice-cold tris buffer saline (TBS) containing 0.1% Tween20 (TBST) (200 μL). A house vacuum source attached to an 8-channel aspirator was used to remove the liquid from the microplates. Further, methanol (100 μL at −20° C.) was added to each well and the plate was left at 4° C. for 10 min. Methanol was removed by washing with TBST (2×200 μL). The plate was further incubated at RT for 1 h with SuperBlock® (Pierce # 37535) (200 μL) and overnight at 4° C. with the anti-Her-2 antibody (Santa Cruz Biotechnology # SC-284) ([…], 1:200 in SuperBlock®). Each well was washed with TBST (2×200 μL) and incubated at RT for 2 h with an anti-rabbit HRP-linked antibody (Sigma # A0545) (100 μL, 1:1000 in SuperBlock®). […] The plate was read 5 min later in an Analyst AD plate reader (Molecular Devices). […] Readings from wells containing only control IgG and the corresponding HRP-linked secondary antibody were set as background and deducted from all measured values. […]

[2] = test system: tumor hsp90 versus normal tissue Hsp90; assay: Fluorescence polarization assay with tumor cell and normal tissue lysates; assay type: binding; settings: FIG. 11 and FIG. 22C
Method: For use in the assay of the invention, cell lysates are made using the following protocol • collect cells • adherent cells: trypsinize (or scrape), harvest cells in 15 ml conical tubes and centrifuge at 1,600 RPM for 5 minutes at 2 to 8 C • (use confluent T-175 flask to obtain 0.5 ml of lysate) • floating cells: pellet cells by centrifugation 1600 rpm for 5 minutes at 2 to 8 C • wash 2× with 5 ml of PBS buffer • resuspend the pellet in 1 ml of PBS buffer and transfer cells to an eppendorf tube • centrifuge, aspirate supernatant, and freeze the pellet O/N at −70° C. • resuspend in lysis buffer B (Felts buffer) (1×10^6 cells per 100 l of buffer B) • incubate on the rotor for 2 hours at 2 to 8° C. • centrifuge the samples at 13,200 RPM for 30 min at 2 to 8° C. • transfer the supernatant to a fresh tube • quantitate protein concentration with the Pierce BCA assay • add 0.5 uL of 1M DTT/mL lysate • store samples at −70 C; before conducting an experiment thaw samples on ice and keep samples on ice throughout the course of experiment.
Cellular lysates were prepared in this manner from normal brain tissue, CML cell line K562 and breast cancer cell line SKBr3. For constructing a saturation curve, 5 nM GM BODIPY was added to the lysate, and the fluorescence polarization assay of the invention was performed. […]
The assay is stable and results in reproducible data (6-24 h readings presented). […]

[3] = molecular target: T1, Hsp90 alpha (Homo sapiens, UniProt P07900); assay: Fluorescence polarization competitive displacement of GM-BODIPY from Hsp90; assay type: binding; settings: ratio of EC50 values
T1 construct: purchased Stressgen SPP776
Description: The method comprises the steps of: • (a) combining the candidate molecule with Hsp90 in the presence of a fluorescently-labeled molecule known to bind to Hsp90; • (b) exciting the fluorescent label using polarized light to produce a fluorescent emission; • (c) observing the degree of polarization of the fluorescent emission; and • (d) comparing the degree of polarization determined in step (c) to a standard value determined for the fluorescently labeled molecule when it is bound to Hsp90. When the fluorescently-labeled molecule is bound to the Hsp90, the emission is substantially polarized. On the other hand, when the fluorescently-labeled molecule has been wholly or partially displaced by candidate molecule, the extent to which the emission is polarized decreases as a result of the rotational freedom of the unbound fluorescently labeled species.
Maximum concentration of used DMSO was 0.25% (v/v). The plate was left on a shaker at 4° C. for 5 h and the FP values in mP were recorded.
Ad-But was again used as a control.
A mixture of 30 nM Hsp90 alpha, 30 nM Hsp90 beta or 200 nM Grp94-His, respectively with 5 nM GM BODIPY was added and the plate incubated at 4EC for 7 h. Specific ligand binding was plotted against the log10 inhibitor concentration and EC50 values calculated using a non linear least square curve fitting program in Prism 4.0.

[4] = molecular target: Hsp90 beta (Homo sapiens, UniProt P08238); assay: Fluorescence polarization competitive displacement of GM-BODIPY, Hsp90 beta; assay type: binding; settings: 30 nM Hsp90 beta, 5 nM GM BODIPY, 7 h
Description: Specific ligand binding was plotted against the log10 inhibitor concentration and EC50 values calculated using a non linear least square curve fitting program in Prism 4.0.

[5] = Homo sapiens, SK-BR-3, Her2-blot, read-out: IC50 for Her2 degradation

Hsp90 beta, sequence (P08238 whole entry): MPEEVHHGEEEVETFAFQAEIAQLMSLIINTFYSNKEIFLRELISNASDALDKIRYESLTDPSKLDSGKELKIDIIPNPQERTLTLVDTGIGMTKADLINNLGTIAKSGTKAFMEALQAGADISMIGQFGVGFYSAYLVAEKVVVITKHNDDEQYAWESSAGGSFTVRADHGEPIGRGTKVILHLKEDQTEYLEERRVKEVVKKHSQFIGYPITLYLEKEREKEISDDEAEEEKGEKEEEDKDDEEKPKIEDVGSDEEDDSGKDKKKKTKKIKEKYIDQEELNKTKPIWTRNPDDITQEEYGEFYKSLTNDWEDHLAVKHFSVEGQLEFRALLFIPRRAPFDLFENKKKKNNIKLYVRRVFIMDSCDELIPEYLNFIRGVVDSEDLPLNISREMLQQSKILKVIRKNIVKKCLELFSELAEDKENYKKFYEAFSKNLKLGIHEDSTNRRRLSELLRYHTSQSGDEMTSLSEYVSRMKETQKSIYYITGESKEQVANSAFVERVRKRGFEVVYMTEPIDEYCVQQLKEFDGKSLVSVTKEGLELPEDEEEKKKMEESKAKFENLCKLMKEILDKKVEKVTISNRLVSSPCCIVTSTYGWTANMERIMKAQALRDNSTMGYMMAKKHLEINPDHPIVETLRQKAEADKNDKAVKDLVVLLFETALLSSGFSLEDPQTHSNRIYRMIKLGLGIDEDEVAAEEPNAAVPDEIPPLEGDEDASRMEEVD

SMILES: COC1=C2C[C@@H](C)C[C@H](OC)[C@H](O)[C@@H](C)/C=C(\C)[C@H](OC(N)=O)[C@@H](OC)/C=C\C=C(/C)C(=O)NC(=CC1=O)C2=O [GM, geldanamycin]
IC50 [1, 5]: 0.017 µM

SMILES: CCCCn1c(Cc2cc(OC)c(OC)c(OC)c2)nc2c(N)ncnc21 [PU3]
times weaker Hsp90 inhibitor than 17AAG [3]: 30

SMILES: CCNC(=O)[C@H]1O[C@@H](n2cnc3c(N)ncnc32)[C@H](O)[C@@H]1O [NECA]
Inhibition of cytosolic Hsp90 b (FIG. 13A) [4]: does not inhibit

Second part, led by results:

IC50 [1, 5]: 0.028 µM
SMILES: C[C@@H]1C[C@H]2O[C@@H]2/C=C\C=C\C(=O)Cc2c(Cl)c(O)cc(O)c2C(=O)O1 [RD, radicicol]

IC50 ([1]; several plates at different time periods, read-out: IC50s in separate readings of the Her2-blot): 4 µM and 4.18 µM and 4.54 µM
SMILES: C#CCCCn1c(Cc2cc(OC)c(OC)c(OC)c2Cl)nc2c(N)nc(F)nc21 [PU24FCl]
Binding affinity for tumor versus normal tissue Hsp90 [2]: difference in binding affinity
